# According to ChEMBL document CHEMBL3885881, “DrugMatrix”:
# Organism: Rattus norvegicus
# Assay: DrugMatrix - Regimen: Daily Repeat
# Format: toxicity, organism-based, Sprague-Dawley
# Design: regimen Daily Repeat, gender Male, age 6-8 weeks
# Conditions: in vivo, iv, vehicle 100 % SALINE; for ABSOLUTE BASOPHIL / ABSOLUTE EOSINOPHIL / ABSOLUTE LYMPHOCYTE / ABSOLUTE MONOCYTE / ABSOLUTE SEGMENTED NEUTROPHIL / BASOPHIL / EOSINOPHIL / ERYTHROCYTE COUNT / HEMATOCRIT / HEMOGLOBIN / LEUKOCYTE COUNT / LYMPHOCYTE / MEAN CORPUSCULAR HEMOGLOBIN / MEAN CORPUSCULAR HEMOGLOBIN CONCENTRATION / MEAN CORPUSCULAR VOLUME / MONOCYTE / NEUTROPHIL / NUCLEATED RED BLOOD CELLS / PLATELET COUNT: tissue Blood; for ALANINE AMINOTRANSFERASE / ALBUMIN / ALKALINE PHOSPHATASE / ASPARTATE AMINOTRANSFERASE / BLOOD UREA NITROGEN / CARBON DIOXIDE / CHLORIDE / CHOLESTEROL / CREATINE PHOSPHOKINASE / CREATININE / GLUCOSE / LACTATE DEHYDROGENASE / LIPASE / PHOSPHORUS / POTASSIUM / SODIUM / TOTAL BILIRUBIN / TOTAL PROTEIN / URIC ACID: tissue Plasma
# [1] = 0.5 mg/kg, 72 h, dose level Low, time 3 day
# [2] = 0.5 mg/kg, 120 h, dose level Low, time 5 day
# [3] = […], 72 h, dose 2.5 mg/Kg, dose level High, time 3 day
# [4] = […], 120 h, dose 2.5 mg/Kg, dose level High, time 5 day
smiles,measurement,setting,value
CC[N+](CC)(CC)CCOc1cccc(OCC[N+](CC)(CC)CC)c1OCC[N+](CC)(CC)CC.[I-].[I-].[I-] [GALLAMINE TRIETHIODIDE],ABSOLUTE BASOPHIL,[1],0 CELLS/uL
same,ABSOLUTE EOSINOPHIL,[1],0 CELLS/uL
same,ABSOLUTE LYMPHOCYTE,[1],12252.67 CELLS/uL
same,ABSOLUTE MONOCYTE,[1],379 CELLS/uL
same,ABSOLUTE SEGMENTED NEUTROPHIL,[1],1435 CELLS/uL
same,BASOPHIL,[1],0%
same,EOSINOPHIL,[1],0%
same,ERYTHROCYTE COUNT,[1],5.22 x10E6/uL
same,HEMATOCRIT,[1],33.63%
same,HEMOGLOBIN,[1],13.53 G/DL
same,LEUKOCYTE COUNT,[1],14.07 x10E3/uL
same,LYMPHOCYTE,[1],87%
same,MEAN CORPUSCULAR HEMOGLOBIN,[1],25.93 pg
same,MEAN CORPUSCULAR HEMOGLOBIN CONCENTRATION,[1],40.3 G/DL
same,MEAN CORPUSCULAR VOLUME,[1],64.4 fL
same,MONOCYTE,[1],2.67%
same,NEUTROPHIL,[1],10.33%
same,NUCLEATED RED BLOOD CELLS,[1],0.33 /100WBC
same,PLATELET COUNT,[1],1175 x10E3/uL
same,ALANINE AMINOTRANSFERASE,[1],52 u/L
same,ALBUMIN,[1],4.07 G/DL
same,ALKALINE PHOSPHATASE,[1],372 u/L
same,ASPARTATE AMINOTRANSFERASE,[1],79.33 u/L
same,BLOOD UREA NITROGEN,[1],15.33 mg/dL
same,CARBON DIOXIDE,[1],23.33 mmol/L
same,CHLORIDE,[1],104.33 MEQ/L
same,CHOLESTEROL,[1],71.33 mg/dL
same,CREATINE PHOSPHOKINASE,[1],361.33 u/L
same,CREATININE,[1],0.14 mg/dL
same,GLUCOSE,[1],161.67 mg/dL
same,LACTATE DEHYDROGENASE,[1],163 u/L
same,LIPASE,[1],9 u/L
same,PHOSPHORUS,[1],13.97 mg/dL
same,POTASSIUM,[1],6.65 MEQ/L
same,SODIUM,[1],146.57 MEQ/L
same,TOTAL BILIRUBIN,[1],0.2 mg/dL
same,TOTAL PROTEIN,[1],5.67 G/DL
same,URIC ACID,[1],1.4 mg/dL
same,ABSOLUTE BASOPHIL,[2],0 CELLS/uL
same,ABSOLUTE EOSINOPHIL,[2],43 CELLS/uL
same,ABSOLUTE LYMPHOCYTE,[2],13831.33 CELLS/uL
same,ABSOLUTE MONOCYTE,[2],112.67 CELLS/uL
same,ABSOLUTE SEGMENTED NEUTROPHIL,[2],1346.33 CELLS/uL
same,BASOPHIL,[2],0%
same,EOSINOPHIL,[2],0.33%
same,ERYTHROCYTE COUNT,[2],5.96 x10E6/uL
same,HEMATOCRIT,[2],37.33%
same,HEMOGLOBIN,[2],14.57 G/DL
same,LEUKOCYTE COUNT,[2],15.33 x10E3/uL
same,LYMPHOCYTE,[2],90.33%
same,MEAN CORPUSCULAR HEMOGLOBIN,[2],24.5 pg
same,MEAN CORPUSCULAR HEMOGLOBIN CONCENTRATION,[2],39.03 G/DL
same,MEAN CORPUSCULAR VOLUME,[2],62.7 fL
same,MONOCYTE,[2],0.67%
same,NEUTROPHIL,[2],8.67%
same,NUCLEATED RED BLOOD CELLS,[2],0.33 /100WBC
same,PLATELET COUNT,[2],1517.33 x10E3/uL
same,ALANINE AMINOTRANSFERASE,[2],52.33 u/L
same,ALBUMIN,[2],4.17 G/DL
same,ALKALINE PHOSPHATASE,[2],369.67 u/L
same,ASPARTATE AMINOTRANSFERASE,[2],80.67 u/L
same,BLOOD UREA NITROGEN,[2],15.67 mg/dL
same,CARBON DIOXIDE,[2],22 mmol/L
same,CHLORIDE,[2],104 MEQ/L
same,CHOLESTEROL,[2],61.67 mg/dL
same,CREATINE PHOSPHOKINASE,[2],215 u/L
same,CREATININE,[2],0.26 mg/dL
same,GLUCOSE,[2],161 mg/dL
same,LACTATE DEHYDROGENASE,[2],282 u/L
same,LIPASE,[2],10 u/L
same,PHOSPHORUS,[2],14.53 mg/dL
same,POTASSIUM,[2],7.06 MEQ/L
same,SODIUM,[2],146.97 MEQ/L
same,TOTAL BILIRUBIN,[2],0.2 mg/dL
same,TOTAL PROTEIN,[2],5.93 G/DL
same,URIC ACID,[2],1.57 mg/dL
same,ABSOLUTE BASOPHIL,[3],0 CELLS/uL
same,ABSOLUTE EOSINOPHIL,[3],0 CELLS/uL
same,ABSOLUTE LYMPHOCYTE,[3],15571.67 CELLS/uL
same,ABSOLUTE MONOCYTE,[3],0 CELLS/uL
same,ABSOLUTE SEGMENTED NEUTROPHIL,[3],1428.33 CELLS/uL
same,BASOPHIL,[3],0%
same,EOSINOPHIL,[3],0%
same,ERYTHROCYTE COUNT,[3],5.32 x10E6/uL
same,HEMATOCRIT,[3],34.57%
same,HEMOGLOBIN,[3],13.83 G/DL
same,LEUKOCYTE COUNT,[3],17 x10E3/uL
same,LYMPHOCYTE,[3],91.67%
same,MEAN CORPUSCULAR HEMOGLOBIN,[3],25.97 pg
same,MEAN CORPUSCULAR HEMOGLOBIN CONCENTRATION,[3],40 G/DL
same,MEAN CORPUSCULAR VOLUME,[3],64.93 fL
same,MONOCYTE,[3],0%
same,NEUTROPHIL,[3],8.33%
same,NUCLEATED RED BLOOD CELLS,[3],1 /100WBC
same,PLATELET COUNT,[3],1293 x10E3/uL
same,ALANINE AMINOTRANSFERASE,[3],50 u/L
same,ALBUMIN,[3],4.23 G/DL
same,ALKALINE PHOSPHATASE,[3],314.67 u/L
same,ASPARTATE AMINOTRANSFERASE,[3],74 u/L
same,BLOOD UREA NITROGEN,[3],15.67 mg/dL
same,CARBON DIOXIDE,[3],22.33 mmol/L
same,CHLORIDE,[3],104.33 MEQ/L
same,CHOLESTEROL,[3],65.67 mg/dL
same,CREATINE PHOSPHOKINASE,[3],204 u/L
same,CREATININE,[3],0.27 mg/dL
same,GLUCOSE,[3],155 mg/dL
same,LACTATE DEHYDROGENASE,[3],158 u/L
same,LIPASE,[3],11.33 u/L
same,PHOSPHORUS,[3],12.97 mg/dL
same,POTASSIUM,[3],6.92 MEQ/L
same,SODIUM,[3],147.33 MEQ/L
same,TOTAL BILIRUBIN,[3],0.17 mg/dL
same,TOTAL PROTEIN,[3],6 G/DL
same,URIC ACID,[3],1.53 mg/dL
same,ABSOLUTE BASOPHIL,[4],0 CELLS/uL
same,ABSOLUTE EOSINOPHIL,[4],0 CELLS/uL
same,ABSOLUTE LYMPHOCYTE,[4],13793.67 CELLS/uL
same,ABSOLUTE MONOCYTE,[4],142.67 CELLS/uL
same,ABSOLUTE SEGMENTED NEUTROPHIL,[4],830.33 CELLS/uL
same,BASOPHIL,[4],0%
same,EOSINOPHIL,[4],0%
same,ERYTHROCYTE COUNT,[4],5.65 x10E6/uL
same,HEMATOCRIT,[4],35.97%
same,HEMOGLOBIN,[4],14.53 G/DL
same,LEUKOCYTE COUNT,[4],14.77 x10E3/uL
same,LYMPHOCYTE,[4],93.33%
same,MEAN CORPUSCULAR HEMOGLOBIN,[4],25.73 pg
same,MEAN CORPUSCULAR HEMOGLOBIN CONCENTRATION,[4],40.4 G/DL
same,MEAN CORPUSCULAR VOLUME,[4],63.63 fL
same,MONOCYTE,[4],1%
same,NEUTROPHIL,[4],5.67%
same,NUCLEATED RED BLOOD CELLS,[4],0.33 /100WBC
same,PLATELET COUNT,[4],1259.67 x10E3/uL
same,ALANINE AMINOTRANSFERASE,[4],54 u/L
same,ALBUMIN,[4],4.23 G/DL
same,ALKALINE PHOSPHATASE,[4],276.67 u/L
same,ASPARTATE AMINOTRANSFERASE,[4],81.33 u/L
same,BLOOD UREA NITROGEN,[4],15.67 mg/dL
same,CARBON DIOXIDE,[4],21.33 mmol/L
same,CHLORIDE,[4],105 MEQ/L
same,CHOLESTEROL,[4],56.33 mg/dL
same,CREATINE PHOSPHOKINASE,[4],248 u/L
same,CREATININE,[4],0.19 mg/dL
same,GLUCOSE,[4],147 mg/dL
same,LACTATE DEHYDROGENASE,[4],275.33 u/L
same,LIPASE,[4],10 u/L
same,PHOSPHORUS,[4],12.67 mg/dL
same,POTASSIUM,[4],6.58 MEQ/L
same,SODIUM,[4],146.13 MEQ/L
same,TOTAL BILIRUBIN,[4],0.2 mg/dL
same,TOTAL PROTEIN,[4],6.13 G/DL
same,URIC ACID,[4],1.47 mg/dL
